Patent US6858647B2, “Retinoid compounds suited for antibacterial applications” (Galderma Research & Development S.N.C., priority 2000, dated 2005)
In brackets after ≈: the same amount, converted by molar mass. Like-named read-outs stand apart in the source and are kept apart here.

Experiments:
[1] = tested on: Staphylococcus aureus CIP52.1; experiment: Minimum inhibitory concentration (MIC), NCCLS dilution antimicrobial susceptibility test; format: cell-based; details: mean of at least three tests, read-out: MIC RESULTS MEAN
From the text: The bacterium Staphylococcus aureus CIP52.1 may be used in order to determine for each test compound the minimum inhibitory concentration for the bacterium, or MIC, expressed in μM.
The technique employed to determine the minimum inhibitory concentration or MIC was that described in the publication entitled “National committee for clinical laboratory standards” Vol. 13, No. 25, December 1993; Methods for dilution antimicrobial susceptibility tests for bacteria that grow aerobically-third edition, approved standard”. This minimum inhibitory concentration gives an indication as to the bacteriostatic effect of the test compounds, i.e., the capacity of these compounds to stop the proliferation of the bacterium.
Each compound of the invention was tested at least three times. The average of the test results was calculated, along with the standard deviation. The reference compound used was gentamycin.
The technique employed to determine the MIC values was the same as that described in Example 1.
(§1) Each compound of the invention and each comparative example taken from the Pierre Fabre patent application No. FR-2,736,548 was tested at least three times. The mean of the test results was calculated, along with the standard deviation. The reference compound used was gentamycin.

RAR receptor = experiment: Biological activity of RAR receptor antagonist / agonist type; details: stated in words, no test described
[2] = tested on: bacterium Staphylococcus aureus; experiment: Minimum bactericidal concentration (MBC); format: cell-based; details: Table IV, Example 2, mean of at least three tests, bactericidal activity (MBC)
Description: The technique employed to determine the minimum bactericidal concentration, or MBC, was that described in Bactéricidie, P. Courvalin et al., Editions Maloine, 1990, chapter 7, page 335.
This minimum bactericidal concentration provides an indication as to the bactericidal effect of the test compounds, i.e., the capacity of these compounds to kill the bacterium.
as §1

[3] = Staphylococcus aureus, CIP52, Table II, Example 1, bacteriostatic effect
[4] = Staphylococcus aureus, CIP52, Table III, Example 2, comparison with retinaldehydes
[5] = Table III, Example 2, comparison with retinaldehydes
[6] = Table II, Example 1, bacteriostatic effect

Compound: COCOc1cccc(C=CC#Cc2ccc(C(=O)O)cc2)c1-c1ccc(C)cc1 [Compound 2, 4-[4-(6-Methoxymethoxy-4′-methylbiphenyl-2-yl)but-3-en-1-ynyl]benzoic acid]
- MIC [1, 3]: 1.04 µM (≈ 0.414 µg/mL)
- MIC [1, 4]: 2.45 µM (≈ 0.976 µg/mL)
- biological activity at RAR receptor (antagonist or agonist type) (RAR receptor): RAR receptor antagonist type
- MIC ([2]; Staphylococcus aureus): 16.6 µM (≈ 6.63 µg/mL)

Compound: CC1=C(/C=C/C(C)=C/C=C/C(C)=C\C=O)C(C)(C)CCC1 [Comparative Example 3, 13-cis-retinaldehyde, reference compound]
- MIC [1, 5]: 7.64 µM (≈ 2.17 µg/mL)
- MIC [2]: 15.97 µM (≈ 4.54 µg/mL)

Compound: CC(C)(C)C1=CC(=CC#Cc2ccc(C(=O)O)cc2)C=C(C(C)(C)C)C1=O [Compound 5, 4-[3-(3,5-Di-tert-butyl-4-oxocyclohexa-2,5-dienylidene)prop-1-ynyl]benzoic acid]
- MIC [1, 3]: 1.25 µM (≈ 0.453 µg/mL)
- MIC [1, 4]: 3.3 µM (≈ 1.2 µg/mL)
- biological activity at RAR receptor (antagonist or agonist type) (RAR receptor): RAR receptor agonist type
- MIC ([2]; Staphylococcus aureus): 13.2 µM (≈ 4.78 µg/mL)

Compound: gentamycin [reference compound]
- MIC [1, 6]: 0.11 µM
- MIC [1, 5]: 0.14 µM
- MIC [2]: 0.26 µM

Compound: CC1=C(/C=C/C(C)=C\C=C\C(C)=C\C=O)C(C)(C)CCC1 [Comparative Example 2, 9-cis-retinaldehyde, reference compound]
- MIC [1, 5]: 11.52 µM (≈ 3.28 µg/mL)
- MIC [2]: 16.63 µM (≈ 4.73 µg/mL)

Compound: CC1(C)CCSc2ccc(-c3cc(-c4ccc(C(=O)O)cc4)ccc3-c3ccccc3)cc21 [Compound 13, 2′-(4,4-Dimethylthiochroman-6-yl) [1,1′,4′,1″]terphenyl-4″-carboxylic acid]
- MIC [1, 6]: 2.08 µM (≈ 0.937 µg/mL)
- biological activity at RAR receptor (antagonist or agonist type) (RAR receptor): RAR receptor agonist type

Compound: CC1(C)CCC(C)(C)c2cc3sc(-c4ccc(C(=O)O)cc4)cc3cc21 [Compound 15, 4-(5,5,8,8-Tetramethyl-5,6,7,8-tetrahydronaphtho-[2,3-b]thiophen-2-yl)benzoic acid]
- MIC [1, 3]: 2.5 µM (≈ 0.911 µg/mL)
- biological activity at RAR receptor (antagonist or agonist type) (RAR receptor): RAR receptor agonist type

Compound: COCOc1ccc(/C=C/C#Cc2ccc(C(=O)O)cc2)c(-c2ccc(C)cc2)c1 [Compound 31, (E)-4-[4-(5-Methoxymethoxy-4′ -methylbiphenyl-2-yl)but-3-en-1-ynyl]benzoic acid]
- MIC [1, 3]: 3.33 µM (≈ 1.33 µg/mL)
- biological activity at RAR receptor (antagonist or agonist type) (RAR receptor): RAR receptor antagonist type

Compound: COc1ccc(C#Cc2cc(C(=O)O)cs2)cc1C12CC3CC(CC(C3)C1)C2 [Compound 7]
- MIC [1, 6]: 1.66 µM (≈ 0.652 µg/mL)
- biological activity at RAR receptor (antagonist or agonist type) (RAR receptor): RAR receptor agonist type

Compound: O=C(O)c1ccc(-c2ccc3cc(O)c(C45CC6CC(CC(C6)C4)C5)cc3c2)cc1 [Compound 16]
- MIC [1, 6]: 2.50 µM (≈ 0.996 µg/mL)
- biological activity at RAR receptor (antagonist or agonist type) (RAR receptor): RAR receptor agonist type

Compound: COCOc1ccccc1-c1ccc(-c2ccc(C(=O)O)cc2)cc1-c1ccc2c(c1)C(C)(C)CCC2(C)C [Compound 34, 2-Methoxymethoxy-2′-(5,5,8,8-tetramethyl-5,6,7,8-tetrahydronaphthalen-2-yl) [1,1′,4′1″]terphenyl-4″carboxylic acid]
- MIC [1, 6]: 3.33 µM (≈ 1.73 µg/mL)
- biological activity at RAR receptor (antagonist or agonist type) (RAR receptor): RAR receptor antagonist type

Compound: CC1=C(/C=C/C(C)=C/C=C/C(C)=C/C=O)C(C)(C)CCC1 [Comparative Example 1, all-trans-retinaldehyde, reference compound]
- MIC [1, 5]: 11.64 µM (≈ 3.31 µg/mL)
- MIC [2]: 26.33 µM (≈ 7.49 µg/mL)

Compound: COc1c(O)cc(-c2ccc3cc(C(=O)O)ccc3c2)cc1C12CC3CC(CC(C3)C1)C2 [Compound 1, 6-[3-(1-Adamantyl)-4-methoxy-5-hydroxyphenyl]-2-naphthoic acid]
- MIC [1, 3]: 1.04 µM (≈ 0.446 µg/mL)
- MIC [1, 4]: 1.3 µM (≈ 0.557 µg/mL)
- biological activity at RAR receptor (antagonist or agonist type) (RAR receptor): RAR receptor agonist type
- MIC ([2]; Staphylococcus aureus): 12.5 µM (≈ 5.36 µg/mL)

Compound: COc1cccc(-c2ccc(C)cc2)c1C=CC#Cc1ccc(C(=O)O)cc1 [Compound 32, 4-[4-(3-Methoxy-4′-methylbiphenyl-2-yl)but-3-en-1-ynyl]benzoic acid]
- MIC [1, 3]: 3.33 µM (≈ 1.23 µg/mL)
- biological activity at RAR receptor (antagonist or agonist type) (RAR receptor): RAR receptor antagonist type

Compound: CCCc1ccc(-c2ccccc2C=CC#Cc2ccc(C(=O)O)cc2)cc1 [Compound 21, 4-[4-(4′-Propylbiphenyl-2-yl)but-3-en-1-ynyl]benzoic acid]
- MIC [1, 3]: 2.5 µM (≈ 0.916 µg/mL)
- biological activity at RAR receptor (antagonist or agonist type) (RAR receptor): RAR receptor antagonist type
